Patent US9655887B2, “Pharmaceutical composition and the use thereof, and application regime of said pharmaceutical composition for on-demand contraception” (BAYER PHARMA AKTIENGESELLSCHAFT, priority 2013, dated 2017)

Assays:
[1] = biological target: EP4 subtype of the human PGE2 receptor (hEP4) (Homo sapiens, UniProt P35408); experiment: cAMP antagonism test, human prostaglandin E2 (subtype EP4) receptor signal; type: cell-based; conditions: selectivity towards hEP4, IC50 measured by cAMP antagonism test
Description: 2. Detection of Antagonism to the Human Prostaglandin E2 (Subtype EP4) Receptor Signal
(§1) The binding of PGE2 to the EP4 subtype of the human PGE2 receptor induces the activation of membrane-located adenylate cyclases and leads to the formation of cAMP. In the presence of the phosphodiesterase inhibitor IBMX, the cAMP accumulated owing to this stimulation and released by cell lysis is used in a competitive detection method. In this test, the cAMP present in the lysate competes with a fluorescence-labelled cAMP (cAMP-d2) for binding to an Eu cryptate-labelled anti-cAMP antibody.
(§2) In the absence of cellular cAMP a maximal signal is produced, which is attributable to the binding of this cAMP-d2 molecule to the antibody. After excitation of the […] at 337 nm, there is a fluorescence resonance energy transfer (FRET) to the Eu cryptate molecules of the anti-cAMP antibody (labelled therewith), followed by a long-lasting emission signal at 665 nm (and at […]). Both signals are measured in a suitable measurement instrument with a time delay, i.e. after decay of the background fluorescence. Any increase in the low FRET signal caused by prostaglandin E2 administration (measured as well ratio change=emission665nm/emission620nm*10000) indicates the action of antagonists.
2.2.1. Test for Antagonism (Data Per Well of a 384-Well Plate):
(§3) To a test plate with the substance solutions already added (0.05 μl; 100% DMSO, concentration range from 0.8 nM-16.5 uM) were added 4 μl of a cAMP-d2/cell suspension (312500 cells/ml). After a 20-minute preincubation at room temperature (RT), 2 μl of a 3×PGE2 solution (0.3 nM, in PBS-IBMX) were added and incubated in the presence of the agonist for a further 60 mins at RT (volume: ˜6 μl). Next the reaction was stopped by addition of 2 μl of lysis buffer and incubated for a further 20 mins at RT before the actual measurement (volume: ˜8 μl).

human PGD receptor (hDP) = biological target: T1, human PGD receptor (hDP) (Homo sapiens, UniProt Q13258); experiment: cAMP antagonism test, human prostaglandin D receptor signal; type: cell-based; conditions: selectivity towards hDP, IC50 measured by cAMP antagonism test
T1 sequence (Q13258 1-359): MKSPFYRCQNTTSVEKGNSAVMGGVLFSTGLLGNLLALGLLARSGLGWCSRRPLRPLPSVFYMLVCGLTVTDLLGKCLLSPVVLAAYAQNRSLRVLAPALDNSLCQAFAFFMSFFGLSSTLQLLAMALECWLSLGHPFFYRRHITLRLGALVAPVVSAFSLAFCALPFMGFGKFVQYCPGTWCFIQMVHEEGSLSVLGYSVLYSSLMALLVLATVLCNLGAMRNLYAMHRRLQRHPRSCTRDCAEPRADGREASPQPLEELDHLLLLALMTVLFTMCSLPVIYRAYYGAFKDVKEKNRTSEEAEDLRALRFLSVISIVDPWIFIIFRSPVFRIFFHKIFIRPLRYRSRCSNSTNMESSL
Description: 3. Detection of Antagonism to the Human Prostaglandin D Receptor Signal
as §1, with “of prostaglandin D2” for “of PGE2”, “the” for “the EP4 subtype of the”, “human PGD” for “human PGE2”
as §2, with “cellular cAMP,” for “cellular cAMP”
3.2.1. Test for Antagonism (Data Per Well of a 384-Well Plate):
as §3, with “nM)” for “uM)”, “(625000” for “(312500”, “3×PGD2” for “3×PGE2”, “(6” for “(0.3”, “30” for “60”

ovulation = conditions: cited from earlier work

EP4 subtype of the human PGE2 receptor (hEP4), sequence (P35408 whole entry): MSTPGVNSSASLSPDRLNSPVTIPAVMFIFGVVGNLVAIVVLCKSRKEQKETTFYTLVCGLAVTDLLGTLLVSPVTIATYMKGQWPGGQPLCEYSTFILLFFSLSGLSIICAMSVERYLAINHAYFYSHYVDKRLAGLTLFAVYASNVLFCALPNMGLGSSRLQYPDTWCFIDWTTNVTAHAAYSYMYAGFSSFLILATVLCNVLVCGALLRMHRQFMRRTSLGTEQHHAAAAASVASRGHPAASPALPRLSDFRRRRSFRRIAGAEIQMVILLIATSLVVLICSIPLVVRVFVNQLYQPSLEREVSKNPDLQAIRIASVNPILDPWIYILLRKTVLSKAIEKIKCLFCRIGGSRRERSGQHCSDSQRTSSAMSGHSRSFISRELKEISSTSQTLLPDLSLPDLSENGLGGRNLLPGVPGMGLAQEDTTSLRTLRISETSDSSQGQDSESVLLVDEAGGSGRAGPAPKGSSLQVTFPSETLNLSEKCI

Selectivity hEP2/hEP4 [1]	Selectivity hEP2/hDP (human PGD receptor (hDP))	SMILES	cycle length (ovulation; daily administration of 400 mg over the entire cycle, increased from 27.2+/−2.4 days (Edelmann et al. 2010)) [days]	increase in ovulatory dysfunction (ovulation; daily oral administration of 400 mg, depending on time and duration of administration (Edelmann et al. 2013))	delay of ovulation (ovulation; 25 mg on 9 successive days, in 4 of 6 patients (Pall et al.))
xxx (xxx >100)	xxx (xxx >100)	COC(C)CNC(=O)c1ccc2nn(CC3CN(C(=O)c4ccc(Cl)cc4)C3)cc2c1C (single isomer, unassigned) [Example 140, (S or R)-2-{[1-(4-chlorobenzoyl)azetidin-3-yl]methyl}-N-(2-methoxypropyl)-4-methyl-2H-indazole-5-carboxamide]			
xxx (xxx >100)	xxx (xxx >100)	Cc1c(C(=O)NCC2COCCO2)ccc2nn(CC3CN(C(=O)c4ccc(Cl)cc4)C3)cc12 (single isomer, unassigned) [Example 143, (S or R)-2-{[1-(4-chlorobenzoyl)azetidin-3-yl]methyl}-N-(1,4-dioxan-2-yl-methyl)-4-methyl-2H-indazole-5-carboxamide]			
xxx (xxx >100)	xxx (xxx >100)	Cc1c(C(=O)NCC2CCCCO2)ccc2nn(CC3CN(C(=O)c4ccc(Cl)cc4)C3)cc12 (single isomer, unassigned) [Example 145, (R or S)-2-{[1-(4-chlorobenzoyl)azetidin-3-yl]methyl}-4-methyl-N-(3,4,5,6-tetrahydro-2H-pyran-2-ylmethyl)-2H-indazole-5-carboxamide]			
xxx (xxx >100)	xxx (xxx >100)	Cc1c(C(=O)NCC2CCCCO2)ccc2nn(CC3CN(C(=O)c4ccc(Cl)cc4)C3)cc12 (single isomer, unassigned) [Example 146, (S or R)-2-{[1-(4-chlorobenzoyl)azetidin-3-yl]methyl}-4-methyl-N-(3,4,5,6-tetrahydro-2H-pyran-2-ylmethyl)-2H-indazole-5-carboxamide]			
xxx (xxx >100)	xxx (xxx >100)	Cc1c(C(=O)NCC(C)OC2CCC2)ccc2nn(CC3CN(C(=O)c4ccc(Cl)cc4)C3)cc12 (single isomer, unassigned) [Example 155, (S or R)-2-{[1-(4-chlorobenzoyl)azetidin-3-yl]methyl}-N-[2-(cyclobutyloxy)-propyl]-4-methyl-2H-indazole-5-carboxamide]			
xxx (xxx >100)	xxx (xxx >100)	Cc1c(C(=O)NCC2CCCCO2)ccc2nn(CC3CCN(C(=O)c4ccc(Cl)cc4)CC3)cc12 (single isomer, unassigned) [Example 240, (R or S)-2-{[1-(4-chlorobenzoyl)piperidin-4-yl]methyl}-4-methyl-N-(3,4,5,6-tetrahydro-2H-pyran-2-ylmethyl)-2H-indazole-5-carboxamide]			
xxx (xxx >100)	xxx (xxx >100)	Cc1c(C(=O)NCC2CCCCO2)ccc2nn(CC3CCN(C(=O)c4ccc(Cl)cc4)CC3)cc12 (single isomer, unassigned) [Example 241, (S or R)-2-{[1-(4-chlorobenzoyl)piperidin-4-yl]methyl}-4-methyl-N-(3,4,5,6-tetrahydro-2H-pyran-2-ylmethyl)-2H-indazole-5-carboxamide]			
xxx (xxx >100)	xxx (xxx >100)	Cc1c(C(=O)NCC2COCCO2)ccc2nn(CC3CCN(C(=O)c4ccc(Cl)cc4)CC3)cc12 (single isomer, unassigned) [Example 415, (S or R)-2-{[1-(4-chlorobenzoyl)piperidin-4-yl]methyl}-N-(1,4-dioxan-2-yl-methyl)-4-methyl-2H-indazole-5-carboxamide]			
xxx (xxx >100)	xxx (xxx >100)	Cc1c(C(=O)NCC2CCCCO2)ccc2nn(CC3CCN(C(=O)c4ccc(Oc5ccc(C(F)(F)F)cc5)cc4)CC3)cc12 (single isomer, unassigned) [Example 416, (R or S)-4-methyl-N-(3,4,5,6-tetrahydro-2H-pyran-2-ylmethyl)-2-[(1-{4-[4-(trifluoromethyl)phenoxy]benzoyl}piperidin-4-yl)methyl]-2H-indazole-5-carboxamide]			
xxx (xxx >100)	xxx (xxx >100)	Cc1c(C(=O)NCC2CCCCO2)ccc2nn(CC3CCN(C(=O)c4ccc(Oc5ccc(C(F)(F)F)cc5)cc4)CC3)cc12 (single isomer, unassigned) [Example 417, (S or R)-4-methyl-N-(3,4,5,6-tetrahydro-2H-pyran-2-ylmethyl)-2-[(1-{4-[4-(trifluoromethyl)phenoxy]benzoyl}piperidin-4-yl)methyl]-2H-indazole-5-carboxamide]			
xxx (xxx >100)	xxx (xxx >100)	Cc1c(C(=O)NCC2COCCO2)ccc2nn(CC3CCN(C(=O)c4ccc(Oc5ccc(C(F)(F)F)cc5)cc4)CC3)cc12 (single isomer, unassigned) [Example 418, (R or S)—N-(1,4-dioxan-2-ylmethyl)-4-methyl-2-[(1-{4-[4-(trifluoromethyl)-phenoxy]benzoyl}piperidin-4-yl)methyl]-2H-indazole-5-carboxamide]			
xxx (xxx >100)	xxx (xxx >100)	Cc1c(C(=O)NCC2COCCO2)ccc2nn(CC3CCN(C(=O)c4ccc(Oc5ccc(C(F)(F)F)cc5)cc4)CC3)cc12 (single isomer, unassigned) [Example 419, (R or S)—N-(1,4-dioxan-2-ylmethyl)-4-methyl-2-[(1-{4-[4-(trifluoromethyl)-phenoxy]benzoyl}piperidin-4-yl)methyl]-2H-indazole-5-carboxamide]			
		Cc1ccc(-c2cc(C(F)(F)F)nn2-c2ccc(S(N)(=O)=O)cc2)cc1 [celecoxib, 4-[5-(4-methylphenyl)-3-(trifluoromethyl)-1H-pyrazol-1-yl]benzenesulphonamide]	28.5 ± 2.5	25-30%	
		CS(=O)(=O)c1ccc(C2=C(c3ccccc3)C(=O)OC2)cc1 [rofecoxib, 4-(4-mesylphenyl)-3-phenylfuran-2(5H)-one]			more than 48 hours
